In ChEMBL document CHEMBL1201862, “PubChem BioAssay data set” (2004):
The source made the active and inactive calls.

Assays:
Hexokinase HKDC1 = biological target: T1, Hexokinase HKDC1 (Homo sapiens, UniProt Q2TB90); assay: inhibition of HKDC1 glucose phosphorylation – biochemical, W721R variant, dose response (AID 504729); assay type: functional
T1 sequence (Q2TB90 whole entry): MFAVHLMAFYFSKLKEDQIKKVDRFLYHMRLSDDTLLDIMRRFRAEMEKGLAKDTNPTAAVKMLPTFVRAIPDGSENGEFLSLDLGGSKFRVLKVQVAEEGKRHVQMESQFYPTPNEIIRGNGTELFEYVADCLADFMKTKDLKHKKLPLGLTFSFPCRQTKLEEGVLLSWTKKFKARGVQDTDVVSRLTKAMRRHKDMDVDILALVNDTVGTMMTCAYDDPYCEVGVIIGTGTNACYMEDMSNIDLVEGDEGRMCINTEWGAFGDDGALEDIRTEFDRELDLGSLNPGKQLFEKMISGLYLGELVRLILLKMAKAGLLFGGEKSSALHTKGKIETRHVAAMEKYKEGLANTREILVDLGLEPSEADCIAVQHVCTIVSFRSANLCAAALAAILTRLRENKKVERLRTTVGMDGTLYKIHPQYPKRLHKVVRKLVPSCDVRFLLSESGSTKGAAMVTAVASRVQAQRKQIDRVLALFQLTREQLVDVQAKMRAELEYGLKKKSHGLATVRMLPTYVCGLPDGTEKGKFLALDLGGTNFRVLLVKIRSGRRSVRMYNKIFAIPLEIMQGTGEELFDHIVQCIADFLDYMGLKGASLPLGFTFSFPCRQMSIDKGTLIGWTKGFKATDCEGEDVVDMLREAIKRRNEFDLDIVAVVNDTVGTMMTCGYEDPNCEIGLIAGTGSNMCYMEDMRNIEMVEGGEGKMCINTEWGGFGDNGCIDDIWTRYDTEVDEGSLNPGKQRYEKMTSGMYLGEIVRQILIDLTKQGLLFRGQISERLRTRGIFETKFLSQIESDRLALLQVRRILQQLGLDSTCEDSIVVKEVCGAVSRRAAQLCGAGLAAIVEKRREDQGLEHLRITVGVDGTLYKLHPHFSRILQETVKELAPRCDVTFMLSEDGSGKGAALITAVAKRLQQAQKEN

Protein Tat = Protein Tat (Human immunodeficiency virus type 1 group M subtype B (isolate HXB2)(HIV-1), UniProt P04608); assay type: functional;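 note: tat binding to TAR RNA read out by fluorescence polarization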
Chain of Protein Tat (P04608 whole entry): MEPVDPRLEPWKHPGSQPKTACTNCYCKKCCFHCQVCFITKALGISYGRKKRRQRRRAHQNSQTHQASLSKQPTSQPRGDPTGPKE

[1] = biological target: T2, Replicative DNA helicase DnaB (Mycobacterium tuberculosis, UniProt P9WMR3); assay: DnaB intein splicing inhibitors, dose response, biochemical, cell-free fluorescence (AID 449749); assay type: functional
T2 sequence (P9WMR3 whole entry): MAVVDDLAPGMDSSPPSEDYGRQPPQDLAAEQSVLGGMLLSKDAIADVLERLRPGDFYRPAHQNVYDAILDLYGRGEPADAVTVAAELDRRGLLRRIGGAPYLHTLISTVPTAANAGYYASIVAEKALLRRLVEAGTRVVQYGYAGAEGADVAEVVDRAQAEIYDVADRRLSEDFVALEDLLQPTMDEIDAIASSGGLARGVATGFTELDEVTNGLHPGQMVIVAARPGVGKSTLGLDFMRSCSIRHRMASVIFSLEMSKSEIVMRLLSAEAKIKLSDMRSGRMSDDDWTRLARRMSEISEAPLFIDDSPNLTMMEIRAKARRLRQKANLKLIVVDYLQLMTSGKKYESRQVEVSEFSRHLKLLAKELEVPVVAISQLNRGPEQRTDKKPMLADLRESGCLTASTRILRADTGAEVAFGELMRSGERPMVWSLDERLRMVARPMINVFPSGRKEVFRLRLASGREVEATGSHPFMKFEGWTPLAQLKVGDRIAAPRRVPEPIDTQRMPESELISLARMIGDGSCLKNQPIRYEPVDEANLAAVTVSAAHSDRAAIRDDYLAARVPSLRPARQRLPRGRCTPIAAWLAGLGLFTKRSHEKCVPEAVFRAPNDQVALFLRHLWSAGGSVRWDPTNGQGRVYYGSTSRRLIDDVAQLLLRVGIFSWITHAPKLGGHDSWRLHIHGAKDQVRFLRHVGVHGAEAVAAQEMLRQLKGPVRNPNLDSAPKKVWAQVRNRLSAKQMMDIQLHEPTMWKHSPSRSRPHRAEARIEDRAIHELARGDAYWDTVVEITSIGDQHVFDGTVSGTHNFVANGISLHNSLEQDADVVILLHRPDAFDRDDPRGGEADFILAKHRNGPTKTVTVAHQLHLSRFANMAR

[2] = biological target: T3, E3 ubiquitin-protein ligase XIAP (Homo sapiens, UniProt P98170); assay: Counter Screen using XIAP-Bir3 for Chemical Antagonists of Bir1/2 domains of IAP-family anti-apoptotic proteins. [Related pubchem assays (depositor defined):AID1018, AID1449, AID1514, AID1638, AID1749, AID1750, AID488957, AID488963]
T3 sequence (P98170 whole entry): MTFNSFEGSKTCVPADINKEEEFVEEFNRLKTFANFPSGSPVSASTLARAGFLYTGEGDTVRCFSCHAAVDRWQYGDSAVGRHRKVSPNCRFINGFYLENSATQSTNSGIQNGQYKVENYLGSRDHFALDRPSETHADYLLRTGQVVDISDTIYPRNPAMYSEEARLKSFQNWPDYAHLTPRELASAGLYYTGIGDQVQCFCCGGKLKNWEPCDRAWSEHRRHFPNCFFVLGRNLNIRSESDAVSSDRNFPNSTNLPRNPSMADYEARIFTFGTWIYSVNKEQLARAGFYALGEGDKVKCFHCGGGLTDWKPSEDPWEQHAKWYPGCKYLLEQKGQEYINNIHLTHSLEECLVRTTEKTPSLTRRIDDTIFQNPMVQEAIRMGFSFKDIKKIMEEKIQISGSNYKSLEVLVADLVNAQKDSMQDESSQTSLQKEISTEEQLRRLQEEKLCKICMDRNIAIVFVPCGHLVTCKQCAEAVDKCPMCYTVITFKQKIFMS

[3] = biological target: Eukaryotic translation initiation factor 4E (Mus musculus, UniProt P63073); assay: blockers of eIF4G binding by eIF4E – biochemical, TR-FRET, dose response (AID 855); assay type: functional;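 note: potency for disrupting eIF4E binding to eIF4GI seen as loss of FRET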
Chain of Eukaryotic translation initiation factor 4E (P63073 whole entry): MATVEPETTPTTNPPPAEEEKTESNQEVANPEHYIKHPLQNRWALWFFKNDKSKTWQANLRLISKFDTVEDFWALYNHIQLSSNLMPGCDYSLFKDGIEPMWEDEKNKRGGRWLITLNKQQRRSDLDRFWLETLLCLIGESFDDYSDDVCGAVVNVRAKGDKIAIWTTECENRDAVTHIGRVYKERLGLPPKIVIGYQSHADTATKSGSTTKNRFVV

[4] = biological target: Glucose-6-phosphate 1-dehydrogenase (Homo sapiens, UniProt P11413); assay: inhibition of Homo sapiens G6PD, dose series – biochemical, fluorescence, selectivity assay for P. falciparum G6PD inhibitor project, dose response (AID 504792); assay type: functional
Chain of Glucose-6-phosphate 1-dehydrogenase (P11413 whole entry): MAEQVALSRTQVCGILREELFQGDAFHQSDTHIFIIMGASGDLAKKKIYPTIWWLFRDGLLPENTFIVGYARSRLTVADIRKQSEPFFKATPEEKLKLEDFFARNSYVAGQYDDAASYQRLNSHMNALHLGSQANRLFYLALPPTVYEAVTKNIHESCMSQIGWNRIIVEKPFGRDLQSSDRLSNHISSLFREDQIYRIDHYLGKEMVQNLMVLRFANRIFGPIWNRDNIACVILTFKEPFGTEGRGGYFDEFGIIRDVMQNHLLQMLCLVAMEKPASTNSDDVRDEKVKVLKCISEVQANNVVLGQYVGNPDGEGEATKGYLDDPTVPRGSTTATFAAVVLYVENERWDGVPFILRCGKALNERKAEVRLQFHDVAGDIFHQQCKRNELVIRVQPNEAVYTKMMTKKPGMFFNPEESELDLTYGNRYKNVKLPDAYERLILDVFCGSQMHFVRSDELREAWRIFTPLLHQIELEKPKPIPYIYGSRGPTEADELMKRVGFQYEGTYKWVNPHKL

Genome polyprotein = Genome polyprotein (dengue virus type 2, UniProt P29990); assay: flavivirus cap methylation enzyme inhibition – biochemical, confirmation dose response, primary screen (AID 588689); assay type: functional
Chain of Genome polyprotein (P29990 2492-3391 limits assumed): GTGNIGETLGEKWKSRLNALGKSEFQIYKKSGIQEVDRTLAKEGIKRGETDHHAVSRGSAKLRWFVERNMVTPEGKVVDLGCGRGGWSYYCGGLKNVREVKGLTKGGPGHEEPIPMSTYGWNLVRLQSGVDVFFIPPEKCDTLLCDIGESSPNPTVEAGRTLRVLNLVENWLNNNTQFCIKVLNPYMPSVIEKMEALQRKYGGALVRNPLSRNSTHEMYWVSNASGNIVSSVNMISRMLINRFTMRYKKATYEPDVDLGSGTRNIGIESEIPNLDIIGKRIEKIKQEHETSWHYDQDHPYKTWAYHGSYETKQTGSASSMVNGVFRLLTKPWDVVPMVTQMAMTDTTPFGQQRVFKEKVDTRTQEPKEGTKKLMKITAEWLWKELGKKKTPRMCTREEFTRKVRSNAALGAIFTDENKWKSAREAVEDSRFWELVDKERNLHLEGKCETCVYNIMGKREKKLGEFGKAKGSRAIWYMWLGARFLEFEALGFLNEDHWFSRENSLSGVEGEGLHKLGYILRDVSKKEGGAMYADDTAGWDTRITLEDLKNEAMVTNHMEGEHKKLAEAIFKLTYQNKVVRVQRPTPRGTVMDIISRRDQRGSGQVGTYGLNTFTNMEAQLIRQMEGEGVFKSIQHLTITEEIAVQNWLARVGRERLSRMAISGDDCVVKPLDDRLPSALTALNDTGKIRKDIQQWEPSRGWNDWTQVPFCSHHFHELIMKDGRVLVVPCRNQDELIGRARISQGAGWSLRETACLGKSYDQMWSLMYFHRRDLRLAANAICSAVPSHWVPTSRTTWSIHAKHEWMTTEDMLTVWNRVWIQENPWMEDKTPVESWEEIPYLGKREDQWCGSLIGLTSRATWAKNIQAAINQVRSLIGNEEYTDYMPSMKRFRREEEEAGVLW

[5] = biological target: T3, E3 ubiquitin-protein ligase XIAP; assay: small molecules displacing peptide from XIAP – biochemical, IAP family, fluorescence polarization (AID 1018); assay type: functional
Protein RecA = biological target: T4, Protein RecA (Mycobacterium tuberculosis, UniProt P9WHJ3); assay: Fluorescence Cell-Free Homogeneous Dose Retest to Identify Inhibitors of RecA-Intein Splicing Activity. [Related pubchem assays (depositor defined):AID2097, AID2223, AID489010, AID492950]; assay type: functional
T4 sequence (P9WHJ3 whole entry): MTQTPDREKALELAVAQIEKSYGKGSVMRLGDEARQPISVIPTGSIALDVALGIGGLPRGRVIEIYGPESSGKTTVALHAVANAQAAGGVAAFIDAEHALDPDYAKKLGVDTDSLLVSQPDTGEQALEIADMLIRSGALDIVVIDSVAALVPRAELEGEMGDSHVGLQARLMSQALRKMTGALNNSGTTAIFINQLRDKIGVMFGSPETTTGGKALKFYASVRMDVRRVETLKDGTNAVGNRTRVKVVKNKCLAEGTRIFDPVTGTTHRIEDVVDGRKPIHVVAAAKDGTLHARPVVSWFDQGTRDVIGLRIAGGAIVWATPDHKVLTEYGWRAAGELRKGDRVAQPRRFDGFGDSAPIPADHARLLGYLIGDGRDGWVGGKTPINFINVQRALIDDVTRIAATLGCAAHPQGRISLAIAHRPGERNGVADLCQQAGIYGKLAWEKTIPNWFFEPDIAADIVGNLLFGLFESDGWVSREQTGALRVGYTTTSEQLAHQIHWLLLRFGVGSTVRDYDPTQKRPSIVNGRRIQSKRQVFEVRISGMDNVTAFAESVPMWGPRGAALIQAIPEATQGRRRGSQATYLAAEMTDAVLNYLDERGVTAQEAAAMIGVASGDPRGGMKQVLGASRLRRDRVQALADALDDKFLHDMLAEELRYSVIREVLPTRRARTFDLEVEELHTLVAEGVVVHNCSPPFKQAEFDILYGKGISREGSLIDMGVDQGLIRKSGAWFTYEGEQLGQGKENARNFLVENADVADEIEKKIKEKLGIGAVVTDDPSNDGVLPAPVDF

[6] = biological target: T5, Oxysterols receptor LXR-beta (Homo sapiens, UniProt P55055); assay: LXR agonists, Gal4 luciferase reporter, dose response, counter-screen for ssDAF-12 agonist project, cell-based, luminescence, HEK293, S. stercoralis campaign (AID 720737); assay type: functional; settings: read-out: IC50 (the source's name)
T5 sequence (P55055 whole entry): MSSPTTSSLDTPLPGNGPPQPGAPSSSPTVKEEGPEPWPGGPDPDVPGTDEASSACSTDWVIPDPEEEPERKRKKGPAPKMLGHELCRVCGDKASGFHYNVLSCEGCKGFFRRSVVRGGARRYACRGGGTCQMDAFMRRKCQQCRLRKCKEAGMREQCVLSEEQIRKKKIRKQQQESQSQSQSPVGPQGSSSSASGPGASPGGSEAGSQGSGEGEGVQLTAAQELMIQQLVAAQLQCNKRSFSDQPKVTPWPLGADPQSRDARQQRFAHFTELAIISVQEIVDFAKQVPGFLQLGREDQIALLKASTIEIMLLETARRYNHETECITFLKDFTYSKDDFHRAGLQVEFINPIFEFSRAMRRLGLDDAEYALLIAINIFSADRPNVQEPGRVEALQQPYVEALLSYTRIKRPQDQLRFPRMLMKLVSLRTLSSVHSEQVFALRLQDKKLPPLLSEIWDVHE

[7] = Luminescence-based cell-based high throughput dose response assay to identify activators of the DAF-12 from the parasite S. stercoralis (ssDAF-12).; assay type: functional
[8] = biological target: T6, Histone-lysine N-methyltransferase NSD2 (Homo sapiens, UniProt O96028); assay type: biochemical
T6 sequence (O96028 whole entry): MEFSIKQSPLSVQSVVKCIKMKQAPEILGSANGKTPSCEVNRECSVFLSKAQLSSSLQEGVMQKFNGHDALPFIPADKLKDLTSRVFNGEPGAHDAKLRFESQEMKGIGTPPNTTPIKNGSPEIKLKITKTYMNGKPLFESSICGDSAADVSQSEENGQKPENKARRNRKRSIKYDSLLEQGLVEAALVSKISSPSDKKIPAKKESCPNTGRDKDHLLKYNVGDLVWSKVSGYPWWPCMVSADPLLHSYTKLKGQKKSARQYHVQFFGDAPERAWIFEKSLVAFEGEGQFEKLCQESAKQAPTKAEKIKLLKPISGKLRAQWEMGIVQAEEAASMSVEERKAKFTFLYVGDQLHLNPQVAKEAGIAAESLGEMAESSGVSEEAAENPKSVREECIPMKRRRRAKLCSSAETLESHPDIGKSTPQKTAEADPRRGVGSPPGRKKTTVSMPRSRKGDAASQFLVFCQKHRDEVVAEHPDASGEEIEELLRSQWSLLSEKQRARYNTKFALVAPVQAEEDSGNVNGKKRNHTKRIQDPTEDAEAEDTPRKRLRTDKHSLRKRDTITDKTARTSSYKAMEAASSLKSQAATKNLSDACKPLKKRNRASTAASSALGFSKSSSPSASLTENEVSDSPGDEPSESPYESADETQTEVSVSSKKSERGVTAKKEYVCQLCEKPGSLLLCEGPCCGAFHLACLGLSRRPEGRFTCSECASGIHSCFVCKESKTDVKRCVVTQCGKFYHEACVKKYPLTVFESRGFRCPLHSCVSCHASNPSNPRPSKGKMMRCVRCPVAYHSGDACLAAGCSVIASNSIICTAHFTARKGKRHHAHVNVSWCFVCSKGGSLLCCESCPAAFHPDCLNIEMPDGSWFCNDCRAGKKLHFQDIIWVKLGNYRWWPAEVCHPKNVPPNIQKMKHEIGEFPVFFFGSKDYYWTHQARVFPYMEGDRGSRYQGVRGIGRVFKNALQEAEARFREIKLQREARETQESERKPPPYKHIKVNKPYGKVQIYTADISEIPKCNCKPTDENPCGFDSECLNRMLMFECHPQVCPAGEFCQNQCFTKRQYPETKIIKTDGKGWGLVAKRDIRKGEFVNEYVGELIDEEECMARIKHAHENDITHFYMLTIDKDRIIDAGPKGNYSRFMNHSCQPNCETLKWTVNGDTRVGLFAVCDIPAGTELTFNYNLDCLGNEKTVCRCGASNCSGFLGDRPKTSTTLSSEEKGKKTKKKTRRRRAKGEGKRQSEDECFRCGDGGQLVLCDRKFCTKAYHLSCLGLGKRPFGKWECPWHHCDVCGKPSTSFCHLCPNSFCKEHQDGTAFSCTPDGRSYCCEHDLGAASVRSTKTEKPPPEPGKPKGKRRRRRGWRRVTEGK

HT-1080 = assay: HT1080 cell viability loss – fluorescence readout (AID 620); assay type: functional, cell-based; settings: Homo sapiens
[9] = biological target: Luciferin 4-monooxygenase (Photinus pyralis, UniProt P08659); assay: Counter Screen for Luciferase-based Assay Positives. [Related pubchem assays: 620, 618, 411 ]
Chain of Luciferin 4-monooxygenase (P08659 whole entry): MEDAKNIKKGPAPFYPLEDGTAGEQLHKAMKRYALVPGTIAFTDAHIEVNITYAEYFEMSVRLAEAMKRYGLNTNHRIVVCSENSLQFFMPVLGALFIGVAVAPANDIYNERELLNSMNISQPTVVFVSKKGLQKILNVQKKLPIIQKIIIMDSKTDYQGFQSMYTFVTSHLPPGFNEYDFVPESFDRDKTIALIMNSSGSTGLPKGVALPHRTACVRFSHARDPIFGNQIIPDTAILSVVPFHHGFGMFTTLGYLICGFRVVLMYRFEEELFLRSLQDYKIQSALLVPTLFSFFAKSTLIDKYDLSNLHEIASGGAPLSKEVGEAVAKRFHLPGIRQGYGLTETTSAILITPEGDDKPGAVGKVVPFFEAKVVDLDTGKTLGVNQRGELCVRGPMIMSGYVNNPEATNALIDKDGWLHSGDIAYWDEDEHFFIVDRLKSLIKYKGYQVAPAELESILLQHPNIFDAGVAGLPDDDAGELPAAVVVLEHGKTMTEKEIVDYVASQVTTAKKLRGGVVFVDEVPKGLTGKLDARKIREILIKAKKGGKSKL

[10] = biological target: T5, Oxysterols receptor LXR-beta; assay type: functional, cell-based
[11] = toxicity to human HepG2 hepatoma cells – cell-based, plate reader, dry powder samples, cytotoxicity control, dose response (AID 1159569); assay type: functional;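 note: inhibitor potency with signal falling toward the positive control level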
[12] = growth inhibition of PfATP4-mutant resistant parasites – NITD609-resistant line, SYBR Green, dry powder, dose response (AID 1159571); assay type: functional, cell-based;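 note: parasites synchronized at ring stage by sorbitol before testing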
[13] = toxicity to human hepatoma HepG2 cells – cell-based, cherry-picked samples, cytotoxicity control, dose response (AID 1159577); assay type: functional
[14] = Dd2 malaria parasite growth inhibition potency – SYBR Green, dry powder samples, dose response (AID 1159566); assay type: functional, cell-based;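 note: potency for growth inhibition with lower SYBR green DNA signal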
[15] = P. falciparum Dd2 growth inhibitors, dose response, SYBR Green, cherry-picked samples (AID 1159567); assay type: functional, cell-based
[16] = growth inhibition of yeast DHODH-expressing 3D7 parasites – SYBR Green, dry powder samples, dose response (AID 1159570); assay type: functional, cell-based;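 note: parasite growth measured after 72 hours of compound exposure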

Oc1nc2ccccc2n2c(-c3ccccc3)nnc12
IC50 (Hexokinase HKDC1): 7.52 µM (active)
IC50 (Protein Tat): > 100 µM (active)
AC50 [1]: > 380 µM (inactive)
IC50 [2]: > 100 µM (inactive)
IC50 [3]: 34.4 µM (inactive)
IC50 [4]: 41.6 µM (inactive)
IC50 (Genome polyprotein): 8.26 µM (active)
IC50 [5]: > 100 µM (not active)
EC50 (Protein RecA): 12.8 µM (active)

Cc1ccc(C(=O)NC(=S)c2c(C)cc3ccccn23)cc1
EC50 [6]: > 67.5 µM (inactive)
IC50 [7]: > 67.5 µM (inactive)
AC50 [8]: 11 µM (active)

CCc1ccc2oc(-c3cccc(N)c3)nc2c1
EC50 (HT-1080): > 50 µM (not active)
EC50 [9]: 0.37 µM (active)
EC50 [6]: > 67.5 µM (inactive)
IC50 [7]: > 67.5 µM (inactive)
EC50 [10]: > 67.6 µM (inactive)

CCCOC(=O)Nc1sc2c(c1C(=O)OCC)CCC2
IC50 (Protein Tat): > 100 µM (active)

COc1ccccc1C#Cc1ccc([C@@H]2[C@@H](C#N)N(C(=O)C3CCCC3)[C@H]2CO)cc1
AC50 [11]: 25.2 µM (active)
AC50 [12]: 1.39 µM (active)
AC50 [13]: > 39 µM (inactive)
AC50 [14]: 1.22 µM (active)
AC50 [15]: 2.9 µM (active)
AC50 [16]: 1.92 µM (active)
